Data on six molecules can be found in PubChem BioAssay (NCI).

Some test systems named below: NCI-H226 lung; HCC-2998 colon; NCI-H460 lung; A549 NSCLC; UACC-257 melanoma; UO-31 renal; U251 CNS; HL-60(TB) leukemia; HOP-62 NSCLC; DU-145 prostate.
Common to all, as to assay: NCI anticancer screen, dose series, 48 h

The structures appear in SMILES notation.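 96-well plates; 48 h exposure; 5 concentrations. Endpoints by linear interpolation between flanking doses. Not reached: highest tested concentration assigned. The concentration for 50% growth inhibition is given as GI50. TGI: concentration producing complete growth inhibition.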

`O=C(CN(C1CCCCC1)C1CCCCC1)Nc1ccc(S(=O)(=O)c2ccc(NC(=O)CN(C3CCCCC3)C3CCCCC3)cc2)cc1`: the GI50 with NCI-H226 lung is 2.06 µM; in the assay with HCC-2998 colon it was 1.7 µM; in the assay with NCI-H460 lung, 0.382 µM; with A549 NSCLC it was 1.33 µM; in the assay with UACC-257 melanoma, 1.37 µM; in the assay on UO-31 renal it was 1.24 µM. In addition, the GI50 with U251 CNS was 0.234 µM; with HL-60(TB) leukemia, 1.02 µM; in the assay with HOP-62 NSCLC it was 1.2 µM; in the assay on DU-145 prostate it was 1.14 µM. In addition, the TGI in the assay with NCI-H226 lung amounted to 9.43 µM; in the assay with HCC-2998 colon it was 3.22 µM; in the assay with NCI-H460 lung, 1.63 µM; in the assay with A549 NSCLC, 3.26 µM; in the assay with UACC-257 melanoma it was 3.66 µM; with UO-31 renal, 2.56 µM. Further, the TGI was found to be 0.742 µM in the assay with U251 CNS, 3.23 µM in the assay with HL-60(TB) leukemia, 3.56 µM with HOP-62 NSCLC and 2.38 µM in the assay with DU-145 prostate.

As to `Cc1c[n+](Cc2ccc3ccccc3c2)cn1Cc1ccc2ccccc2c1`, the GI50 is 2.12 µM in the assay on NCI-H226 lung; 1.34 µM with HCC-2998 colon; 1.72 µM with NCI-H460 lung; 5.05 µM in the assay with A549 NSCLC; 1.46 µM with UACC-257 melanoma; 5.47 µM in the assay on UO-31 renal. The GI50 with U251 CNS is 1.61 µM; with HL-60(TB) leukemia it was 0.514 µM; in the assay on HOP-62 NSCLC it was 1.61 µM; in the assay on DU-145 prostate, 2.55 µM. For the same molecule, the TGI in the assay with NCI-H226 lung amounted to 5.87 µM; in the assay with HCC-2998 colon, 2.83 µM; in the assay with NCI-H460 lung, 3.65 µM; with A549 NSCLC, 18.7 µM; with UACC-257 melanoma, 3.16 µM; with UO-31 renal, 20.4 µM. Moreover, the TGI with U251 CNS came to 3.07 µM; with HL-60(TB) leukemia it was 2.34 µM; with HOP-62 NSCLC, 3.8 µM; in the assay on DU-145 prostate, 9.61 µM.

In the case of `COc1ccc(/C=c2/sc3n(c2=O)C(c2ccc(OC)c(OC)c2)C2=C(N=3)c3cc(F)ccc3OC2)cc1` (stereo not drawn), the GI50 in the assay on NCI-H226 lung is 9.17 µM; with NCI-H460 lung, 19.3 µM; in the assay with A549 NSCLC, 23.6 µM; with UACC-257 melanoma, 35 µM; with UO-31 renal, 27.6 µM; in the assay with U251 CNS, 20.9 µM. Besides, the GI50 is 33.1 µM in the assay on HL-60(TB) leukemia, 37.7 µM with HOP-62 NSCLC and 43.3 µM in the assay on DU-145 prostate. Moreover, the TGI is > 60.2 µM in the assay with NCI-H226 lung; 21.2 µM in the assay with HCC-2998 colon; > 100 µM in the assay with NCI-H460 lung; > 82 µM in the assay with A549 NSCLC; > 88.8 µM in the assay on UACC-257 melanoma; > 77.7 µM with UO-31 renal. In addition, the TGI in the assay with U251 CNS is > 78.5 µM; with HL-60(TB) leukemia, > 94.6 µM; in the assay with HOP-62 NSCLC it was > 100 µM; with DU-145 prostate, > 100 µM.

Take `O=C1/C(=C\c2cccn2Cc2ccccc2)c2ccccc2N1c1c(Cl)cccc1Cl`: the GI50 with NCI-H226 lung is 14.9 µM; with HCC-2998 colon, 1.83 µM; in the assay on NCI-H460 lung, 4.43 µM; with A549 NSCLC, 8.32 µM; in the assay on UACC-257 melanoma it was > 100 µM; in the assay on UO-31 renal, 3.89 µM. Also, the GI50 in the assay on U251 CNS, in the assay with HL-60(TB) leukemia, with HOP-62 NSCLC and with DU-145 prostate was > 100 µM throughout. The TGI in the assay with NCI-H226 lung, with HCC-2998 colon, in the assay with NCI-H460 lung, in the assay on A549 NSCLC, with UACC-257 melanoma and with UO-31 renal was > 100 µM each time. In addition, the TGI in the assay with U251 CNS, in the assay on HL-60(TB) leukemia, in the assay with HOP-62 NSCLC and in the assay on DU-145 prostate was > 100 µM in each case.

Turning to `Nc1nc(Br)nc2c1ncn2C1CC(O)C(CO)O1` (stereo not drawn), the GI50 with NCI-H226 lung was 25.2 µM; in the assay on HCC-2998 colon it was 4.55 µM; in the assay with NCI-H460 lung, 61 µM; in the assay on A549 NSCLC it was 5.34 µM; in the assay with UACC-257 melanoma, 27.3 µM; in the assay on UO-31 renal it was 1.3 µM. Besides, the GI50 is 11.4 µM with U251 CNS, 0.0835 µM in the assay with HL-60(TB) leukemia, 4.68 µM in the assay with HOP-62 NSCLC and 44.3 µM in the assay on DU-145 prostate. The TGI in the assay with NCI-H226 lung, in the assay with HCC-2998 colon, in the assay with NCI-H460 lung, in the assay on A549 NSCLC, with UACC-257 melanoma and with UO-31 renal was > 100 µM throughout. The TGI with U251 CNS, with HOP-62 NSCLC and in the assay on DU-145 prostate was > 100 µM in each case.

Turning to `CCN(CC)CCOc1ccc(/C(=C(\C)c2ccc(F)c(OC)c2)c2ccc(Cl)cc2)cc1`, the GI50 was 2.53 µM in the assay with NCI-H226 lung; 2.17 µM in the assay with HCC-2998 colon; 2.07 µM in the assay with NCI-H460 lung; 2.61 µM in the assay on A549 NSCLC; 2.18 µM in the assay on UACC-257 melanoma; 1.89 µM in the assay with UO-31 renal. Moreover, the GI50 with U251 CNS is 2.23 µM; in the assay with HL-60(TB) leukemia, 2.69 µM; in the assay with HOP-62 NSCLC, 2.51 µM; in the assay on DU-145 prostate it was 2.51 µM. The TGI with NCI-H226 lung came to 5.14 µM; with HCC-2998 colon it was 4.36 µM; in the assay on NCI-H460 lung it was 4.24 µM; in the assay with A549 NSCLC, 5.63 µM; with UACC-257 melanoma, 4.67 µM; with UO-31 renal it was 3.96 µM. Moreover, the TGI was 4.74 µM with U251 CNS, 6.43 µM in the assay on HL-60(TB) leukemia, 4.99 µM in the assay with HOP-62 NSCLC and 5.28 µM in the assay with DU-145 prostate.
